Side-chain parts run from the residue outwards. [ ]: non-standard residue; d: D form. pGlu = O=C1CC[C@@H](C(=O)O)N1
Experiments:
[1] = system: recombinant canonical BiTE® protein; test: Size exclusion chromatography with fluorescence detection of CD3-AF488 bound to secreted BiTE; format: binding; conditions: secretion medium mixed with reagent, capture chromatography, FIG. 1B
Method: 100 μl of 0.2 μm filtrated mammalian cell culture samples containing expressed BiTE® constructs featuring human CD3e binding binders were mixed with 2.5 μl peptide-fluorochrome conjugate and transferred into autosampler vials. The vials were placed onto an autosampler connected to an Ultra High Performance Liquid Chromatography ACQUITY UPLC device (Waters, Eschborn, Germany) featuring a fluorescence detector. An analytical size exclusion chromatography BEH200 SEC 1.7 μm column (Waters, Eschborn, Germany) was connected to the UHPLC and equilibrated with a water-based buffer system containing 10 mM Citric Acid, 75 mM Lysine HCl, adjusted to pH 7.0. 10 μl of each prepared sample were applied to the column and eluted using isocratic elution. Detection was performed by using fluorescence detection at 490 nm excitation and 520 nm emission wavelength. […] Both, unpurified secretion medium and purified material were subsequently analyzed by size exclusion chromatography equipped with fluorescence detector (FIG. 1B, C). This setup allowed monitoring of the elution profile of the CD3-AF488 peptide and its bound protein complexes in the context of the whole protein content present in analyzed samples. The UV absorbance (A280 nm) elution profile of purified material allowed for identification of BiTE® monomers, dimers and HMW species (FIG. 1B).

[2] = system: BiTE® recombinant protein
Method: The ability of the CD3-AF594 peptide conjugate to be used for diffusion gradient assays to detect secretion of recombinant CD3 binders on Berkeley Light's nanofluidic chip (FIG. 2A) was assessed next. Cells expressing the BiTE® modality were loaded onto a BLI platform using a standard cell line development workflow. Single cells were deposited in Nanopens™, and subsequently cultured under perfusion for the duration of 6 days. The CD3 reagent was used in a diffusion gradient assay using optimized settings as described herein.

[3] = system: BiTE®-Fc fusion; test: On-chip CD3 diffusion gradient assay, BiTE-Fc secreting cells; conditions: day 5 on chip; FIG. 3A,B
Method: (§1) The CD3 diffusion assay peptide reagent was resuspended in DMSO at 1 mg/ml and stored protected from light at −20° C. for long term storage. For short term storage the assay reagent was further diluted to 4 μg/ml in PBS and stored at 4° C. Prior executing the diffusion gradient assay to detect BiTE® secretion on nanofluidic chip the CD3 diffusion assay reagent was diluted in cell culture medium to 0.2 μg/ml concentration, filtered through 22 μm filter, transferred to 96 well plate and incorporated on the chip. The assay reagent was perfused on the chip at 0.014 μl/sec flow rate for the duration of 45 minutes. In FIG. 4, once the equilibration step was complete the assay reagent was flushed out with 250 μl of cell culture medium at a 20/sec flow rate followed by an additional flush with the cell culture medium at the 0.1667 μl/sec flow rate for the duration of 20 mins. The chip was then imaged through TRED filter cube using 900 ms exposure time and 100% illumination settings.
(§2) In FIG. 2, the CD3 diffusion assay reagent was used at 0.125 μg/ml final concentration. […]
(§3) For CD3 diffusion assays shown in FIGS. 3 and 4, the reference assay was run on an empty chip in order to generate reference images used for normalizing the CD3 diffusion assay score against chip position effects and background fluorescence signal. […]
(§4) Next, the specificity of the BiTE® diffusion gradient assay was assessed. […]

[4] = system: IgG-fusion protein; conditions: day 5 on chip; FIG. 3A-C
Method: as §1, §2, §3, §4

Substance: CD3-AF488 peptide ([pGlu]DGNEEMGGC([C5 maleimide-Alexa Fluor 488])-NH2)
- complex formation with BiTE® recombinant protein (fluorescent SEC elution profile) [1]: formed a complex with the BiTE® recombinant protein

Substance: Pyroglutamate-DGNEEMGGC-AF594 [CD3-AF594 conjugate]
- fluorescent signal in pens with BiTE® expressing cells vs empty pens ([2]; 6 days perfusion culture, reagent 0.125 μg/ml, FIG. 2B): High fluorescent signal
- detection of secretion of BiTE® expressing cell lines ([2]; day 5 on chip, FIG. 3A-C): efficiently detected secretion
- detection of secretion of the BiTE®-Fc protein product [3]: detected
- detection of secretion of the IgG-fusion protein [4]: failed to detect secretion
